According to patent US20220356174A1, “PYRIDIN-2-ONE COMPOUNDS USEFUL AS SMARCA2 ANTAGONISTS” (Epizyme, Inc., priority 2018, published 2022):
pIC50: −log10 of the molar value.

What was measured:
[1] = tested on: various lung cancer cell lines; assay: Long term proliferation (LTP) assay in various cancer cell lines; type: cell-based
Description: The following cell lines were evaluated in an adherent cell line proliferation assay described herein: A549, HCC15, COV434, NCIH460, NCIH358, NCIH358-SMARCA2, NCIH358-SMARCA, NCIH1703, NCIH838, NCIH322, NCIH2122, NCIH2023, NCIH1355, NCIH1693, NCIH441, NCIH2030, NCIH1573, NCIH1373, NCIH1650, and NCIH1693. Plating densities for each cell line were determined based on growth curves (measured by ATP viability) and density over a 7 day timecourse. On the day before compound treatment, cells were plated in either 96-well plates in triplicate (for the day 0-7 timecourse) or 6-well plates (for replating on day 7 for the remainder of the timecourse). On Day 0, cells were either untreated, DMSO-treated, or treated with increasing concentrations of Compound 139 up to 10 μM. Plates were read on Day 0, Day 4, and Day 7 using a luminescent cell viability assay, with compound/media being replenished on Day 4. On Day 7, the 6-well plates were trypsinized, centrifuged, and resuspended in fresh media for counting by Vi-Cell. Cells from each treatment were replated at the original density in 96-well plates in triplicate. Cells were allowed to adhere to the plate overnight, and cells were treated as on Day 0. On Day 7, 11 and 14, plates were read using a luminescent cell viability assay, with compound/media being replenished on Day 11. Averages of triplicates were used to plot proliferation over the timecourse, and calculate IC50 values.
The following cell lines were evaluated in an adherent cell line proliferation assay described herein: NCIH522, CORL23, NCIH1693, NCIH1838, HCC1588, NCIH1435, NCIH2085, HCC827, NCIH1792, NCIH596, NCIH1568, NCIH1793, NCIH2126, CORL105, NCIH1573, NCIH1693, NCIH1395, HCC44, NCIH2126, NCIH520, NCIH1373, NCIH2172, NCIH23, HCT116, […], NCIH2347, NCIH2110, NCIH647, NCIH1437, AGS, KMS11, BT549, HUPT4, NCIH1048, TE10, and TE14. Cell densities were determined by growth curve as per protocol 1. For the proliferation assay, on Day 0, cells were either untreated, DMSO-treated, or treated with increasing concentrations of Compound 139 up to 10 μM. Plates were read on Day 0, Day 4, and Day 7 using luminescent cell viability assay. On Day 7, the 6-well plates were trypsinized, centrifuged, and resuspended in fresh media for counting by Vi-Cell. Cells from each treatment were replated at the original density in 96-well plates in triplicate. Cells were treated with compound as on Day 0. On Day 7, 11 and 14, plates were read using a luminescent cell viability assay. Averages of triplicates were used to plot proliferation over the timecourse, and calculate IC50 values.

A549 cells [2] = assay: High-throughput proliferation (HTP) assay for A549 cells (CellTiter-Glo, 7 days); type: cell-based; settings: Homo sapiens, 168 h, read-out: A549 SMARCA2 IC50
Outline: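 A549 cells plated at 62.5 cells/well in F12K + 10% HI-FBS onto pre-dispensed compound, grown 7 days at 37° C., 5% CO2. Viability by CellTiter-Glo luminescence after 30 min at RT; EC50/IC50 from DMSO (0%) and 10 μM Doxorubicin (100%) inhibition controls.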

A549 cells [3] = assay: Long term proliferation (LTP) assay, day 15 IC50 in A549 cells; type: cell-based; settings: Homo sapiens, 360 h
FL-SMARCA4 = FL-SMARCA4 (Homo sapiens, UniProt P51532); assay: SMARCA4 ATPase activity assay (ADP-Glo, chicken mononucleosome substrate); settings: ATPase assay, enzyme 5 nM, ATP 250 uM, chicken mononucleosome 10 nM, 30 min preincubation
FL-SMARCA4, sequence (P51532 whole entry): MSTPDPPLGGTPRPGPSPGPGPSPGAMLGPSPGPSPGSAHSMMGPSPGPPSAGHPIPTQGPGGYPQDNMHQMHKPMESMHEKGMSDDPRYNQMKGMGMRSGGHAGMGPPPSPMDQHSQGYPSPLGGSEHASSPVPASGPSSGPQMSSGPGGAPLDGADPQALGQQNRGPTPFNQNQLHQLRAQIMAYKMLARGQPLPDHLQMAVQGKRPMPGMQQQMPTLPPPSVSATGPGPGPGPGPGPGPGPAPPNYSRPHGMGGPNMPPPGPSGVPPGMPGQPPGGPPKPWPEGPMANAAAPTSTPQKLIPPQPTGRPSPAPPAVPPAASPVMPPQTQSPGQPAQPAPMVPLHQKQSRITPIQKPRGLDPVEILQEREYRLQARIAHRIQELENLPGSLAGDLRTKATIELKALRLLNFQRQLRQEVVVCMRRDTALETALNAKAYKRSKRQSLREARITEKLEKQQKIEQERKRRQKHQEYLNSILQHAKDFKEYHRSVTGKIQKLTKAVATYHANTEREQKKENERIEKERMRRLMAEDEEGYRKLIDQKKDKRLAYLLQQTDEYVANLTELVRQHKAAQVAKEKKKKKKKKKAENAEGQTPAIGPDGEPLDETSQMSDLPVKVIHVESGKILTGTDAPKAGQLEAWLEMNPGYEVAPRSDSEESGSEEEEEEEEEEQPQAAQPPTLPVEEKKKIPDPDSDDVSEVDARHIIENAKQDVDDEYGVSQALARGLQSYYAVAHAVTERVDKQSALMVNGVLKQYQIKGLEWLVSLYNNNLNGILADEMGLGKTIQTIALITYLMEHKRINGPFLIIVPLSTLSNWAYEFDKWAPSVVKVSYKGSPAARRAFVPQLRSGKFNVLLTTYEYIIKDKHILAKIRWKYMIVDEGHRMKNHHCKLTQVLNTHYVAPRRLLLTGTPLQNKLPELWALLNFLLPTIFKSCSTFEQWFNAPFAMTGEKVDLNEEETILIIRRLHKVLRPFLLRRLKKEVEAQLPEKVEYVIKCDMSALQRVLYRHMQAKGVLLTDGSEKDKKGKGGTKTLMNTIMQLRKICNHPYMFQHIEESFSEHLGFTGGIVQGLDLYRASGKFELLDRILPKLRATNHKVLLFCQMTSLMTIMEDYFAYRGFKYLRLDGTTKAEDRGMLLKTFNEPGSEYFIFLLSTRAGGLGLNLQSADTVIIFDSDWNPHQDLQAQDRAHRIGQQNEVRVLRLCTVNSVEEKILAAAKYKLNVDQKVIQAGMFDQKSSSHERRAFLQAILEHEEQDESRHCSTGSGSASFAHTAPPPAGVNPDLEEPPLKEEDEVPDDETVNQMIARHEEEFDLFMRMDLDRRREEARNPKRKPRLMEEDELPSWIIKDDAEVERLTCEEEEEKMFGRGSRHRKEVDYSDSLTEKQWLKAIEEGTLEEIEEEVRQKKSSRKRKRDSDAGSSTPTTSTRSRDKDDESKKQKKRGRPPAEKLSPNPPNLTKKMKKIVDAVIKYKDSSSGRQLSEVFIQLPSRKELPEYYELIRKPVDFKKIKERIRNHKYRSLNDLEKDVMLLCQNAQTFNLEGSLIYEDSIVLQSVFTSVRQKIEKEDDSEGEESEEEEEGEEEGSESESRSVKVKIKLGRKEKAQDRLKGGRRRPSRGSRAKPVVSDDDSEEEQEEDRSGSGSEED

[4] = Homo sapiens, A549, A549, SMARCA4 protein Absent, Lung NSCLC adenocarcinoma
[5] = Homo sapiens, COR-L105, CORL105, SMARCA4 protein Present, Lung NSCLC adenocarcinoma
[6] = Homo sapiens, HCT-116, HCT116, SMARCA4 protein Present, Colon Cancer
[7] = Homo sapiens, NCI-H358, NCIH358, SMARCA4 protein Present, Lung NSCLC bronchioloalveolar adenocarcinoma
[8] = Homo sapiens, NCI-H358, NCIH358 SMARCA4, SMARCA4 protein Absent, Lung NSCLC bronchioloalveolar adenocarcinoma
[9] = Homo sapiens, NCI-H460, NCIH460, SMARCA4 protein Present, Lung NSCLC large cell carcinoma
[10] = Homo sapiens, NCI-H522, NCIH522, SMARCA4 protein Absent, Lung NSCLC adenocarcinoma
[11] = Homo sapiens, NCI-H1299, NCIH1299, Lung NSCLC non small cell carcinoma
[12] = NCI-H1568, NCIH1568, SMARCA4 protein Absent, Lung NSCLC adenocarcinoma
[13] = NCIH2085, SMARCA4 protein Present, Lung NSCLC adenocarcinoma
[14] = RERFLCAI, SMARCA4 protein Absent, Lung NSCLC squamous cell carcinoma
[15] = HCC15, HCC15, SMARCA4 protein Absent, Lung NSCLC squamous cell carcinoma
[16] = Homo sapiens, COR-L23, CORL23, SMARCA4 protein Present, Lung NSCLC large cell carcinoma
[17] = Homo sapiens, Calu-6, CALU6, SMARCA4 protein Present, Lung NSCLC undifferentiated carcinoma
[18] = Homo sapiens, HCC44, HCC44, SMARCA4 protein Present, Lung NSCLC adenocarcinoma
[19] = Homo sapiens, NCI-H23, NCIH23, SMARCA4 protein Absent, Lung NSCLC non small cell carcinoma
[20] = Homo sapiens, NCI-H358, NCIH358 SMARCA2, SMARCA4 protein Present, Lung NSCLC bronchioloalveolar adenocarcinoma
[21] = Homo sapiens, NCI-H441, NCIH441, SMARCA4 protein Present, Lung NSCLC adenocarcinoma
[22] = Homo sapiens, NCI-H596, NCIH596, Lung NSCLC mixed adenosquamous carcinoma
[23] = Homo sapiens, NCI-H810, NCIH810, SMARCA4 protein Present, Lung NSCLC large cell carcinoma
[24] = Homo sapiens, NCI-H1437, NCIH1437, SMARCA4 protein Present, Lung NSCLC adenocarcinoma
[25] = Homo sapiens, NCI-H1563, NCIH1563, SMARCA4 protein Present, Lung NSCLC adenocarcinoma
[26] = Homo sapiens, NCI-H1573, NCIH1573, SMARCA4 protein Absent, Lung NSCLC adenocarcinoma
[27] = Homo sapiens, NCI-H1693, NCIH1693, SMARCA4 protein Absent, Lung NSCLC adenocarcinoma
[28] = Homo sapiens, NCI-H1975, NCIH1975, SMARCA4 protein Present, Lung NSCLC non small cell carcinoma
[29] = Homo sapiens, NCI-H2030, NCIH2030, SMARCA4 protein Absent, Lung NSCLC non small cell carcinoma
[30] = Homo sapiens, NCI-H2122, NCIH2122, SMARCA4 protein Present, Lung NSCLC adenocarcinoma
[31] = Homo sapiens, PANC-1, PANC1, Pancreatic Cancer ductal carcinoma
[32] = Homo sapiens, SW900, SW900, SMARCA4 protein Present, Lung NSCLC squamous cell carcinoma
[33] = Hs766T, Pancreatic Cancer ductal carcinoma

Structure (SMILES): N#Cc1cc(C(=O)Nc2cc(F)c(=O)n(CC(F)F)c2)sc1C(F)(F)F [Compound 82c, 4-cyano-N-[1-(2,2-difluoroethyl)-5-fluoro-6-oxopyridin-3-yl]-5-(trifluoromethyl)thiophene-2-carboxamide]
- pIC50 [1, 4]: 6.59
- pIC50 [1, 5]: 6.77
- pIC50 [1, 6]: 6.85
- pIC50 [1, 7]: 5.77
- pIC50 [1, 8]: 6.42
- pIC50 [1, 9]: 5.00
- pIC50 [1, 10]: 5.01
- pIC50 [1, 11]: 5.77
- pIC50 ([1]; Homo sapiens, NCI-H1581, NCIH1581, SMARCA4 protein Absent, Lung NSCLC large cell carcinoma): 5.00
- pIC50 [1, 12]: 5.00
- pIC50 [1, 13]: 5.00
- pIC50 [1, 14]: 7.59
- pIC50 (A549 cells [2]): 6.23
- pIC50 (A549 cells [3]): 6.59
- pIC50 (FL-SMARCA4; FL-SMARCA4 IC>50, Table 3c.2): 7.18

Structure (SMILES): N#Cc1sc(C(=O)Nc2cc(F)c(=O)n(CCF)c2)cc1Cl [Compound 139]
- pIC50 [1, 15]: 6.17
- pIC50 ([1]; HCC1588, HCC1588, SMARCA4 protein Present, Lung NSCLC squamous cell carcinoma): 6.04
- pIC50 [1, 4]: 6.50
- pIC50 [1, 16]: 5.77
- pIC50 [1, 5]: 7.02
- pIC50 [1, 17]: 5.92
- pIC50 [1, 18]: 5.90
- pIC50 ([1]; Homo sapiens, HCC827, HCC827, SMARCA4 protein Present, Lung NSCLC adenocarcinoma (bronchioalveolar features)): 5.00
- pIC50 [1, 6]: 6.77
- pIC50 [1, 19]: 5.96
- pIC50 [1, 7]: 5.00
- pIC50 [1, 20]: 5.00
- pIC50 [1, 8]: 6.46
- pIC50 [1, 21]: 5.28
- pIC50 [1, 9]: 5.00
- pIC50 [1, 10]: 5.00
- pIC50 [1, 22]: 5.06
- pIC50 [1, 23]: 6.76
- pIC50 ([1]; Homo sapiens, NCI-H838, NCIH838, SMARCA4 protein Present, Lung NSCLC adenocarcinoma): 5.00
- pIC50 [1, 11]: 6.07
- pIC50 ([1]; Homo sapiens, NCI-H1395, NCIH1395, SMARCA4 protein Present, Lung NSCLC adenocarcinoma): 5.00
- pIC50 [1, 24]: 5.82
- pIC50 [1, 25]: 5.64
- pIC50 [1, 26]: 6.30
- pIC50 ([1]; Homo sapiens, NCI-H1650, NCIH1650, SMARCA4 protein Present, Lung NSCLC bronchioalveolar carcinoma): 5.30
- pIC50 [1, 27]: 7.00
- pIC50 ([1]; Homo sapiens, NCI-H1792, NCIH1792, SMARCA4 protein Present, Lung NSCLC adenocarcinoma): 5.00
- pIC50 ([1]; Homo sapiens, NCI-H1793, NCIH1793, SMARCA4 protein Present, Lung NSCLC adenocarcinoma): 6.05
- pIC50 ([1]; Homo sapiens, NCI-H1838, NCIH1838, SMARCA4 protein Present, Lung NSCLC non-small cell lung cancer): 6.23
- pIC50 [1, 28]: 5.00
- pIC50 [1, 29]: 5.94
- pIC50 [1, 30]: 5.55
- pIC50 ([1]; Homo sapiens, NCI-H2126, NCIH2126, SMARCA4 protein Present, Lung NSCLC adenocarcinoma): 5.26
- pIC50 ([1]; Homo sapiens, NCI-H2342, NCIH2342, SMARCA4 protein Present, Lung NSCLC non-small cell lung cancer): 5.60
- pIC50 [1, 31]: 5.00
- pIC50 [1, 32]: 5.00
- pIC50 [1, 33]: 6.00
- pIC50 ([1]; NCI-H1435, NCIH1435, SMARCA4 protein Present, Lung NSCLC adenocarcinoma): 6.35
- pIC50 [1, 12]: 6.40
- pIC50 [1, 13]: 6.50
- pIC50 [1, 14]: 7.21
- sensitivity to inhibition of SMARCA2 (IC50): cell lines with loss or absence of SMARCA4 versus cell lines with SMARCA4 protein present ([1]; lung cancer cell lines of Table 5, FIG. 1): more sensitive
- pIC50 (A549 cells [2]): 6.06
- pIC50 (A549 cells [3]): 6.50
- pIC50 (FL-SMARCA4; FL-SMARCA4 IC50, Table 3.2): 7.27

Structure (SMILES): O=C(Nc1cc(F)c(=O)n(CC(F)F)c1)c1cc(Cl)c(C(F)(F)F)s1 [Compound 298, 4-Chloro-N-(1-(2,2-difluoroethyl)-5-fluoro-6-oxo-1,6-dihydropyridin-3-yl)-5-(trifluoromethyl)thiophene-2-carboxamide]
- pIC50 ([1]; COV644, Ovarian Cancer): 5.25
- pIC50 [1, 15]: 6.24
- pIC50 [1, 4]: 6.85
- pIC50 [1, 16]: 5.85
- pIC50 [1, 5]: 6.15
- pIC50 [1, 17]: 5.85
- pIC50 ([1]; Homo sapiens, DLD-1, DLD1, SMARCA4 protein Present, Colon Cancer adenocarcinoma): 5.85
- pIC50 [1, 18]: 5.48
- pIC50 [1, 6]: 6.08
- pIC50 ([1]; Homo sapiens, HT-1376, HT1376, Bladder Cancer transitional cell carcinoma): 6.41
- pIC50 ([1]; Homo sapiens, MIA PaCa-2, MIAPACA2, Pancreatic Cancer ductal carcinoma): 6.06
- pIC50 [1, 19]: 6.05
- pIC50 [1, 7]: 5.00
- pIC50 [1, 20]: 5.29
- pIC50 [1, 8]: 6.51
- pIC50 [1, 21]: 5.30
- pIC50 [1, 9]: 5.00
- pIC50 [1, 10]: 5.00
- pIC50 [1, 22]: 5.00
- pIC50 [1, 23]: 6.02
- pIC50 [1, 11]: 6.26
- pIC50 [1, 24]: 5.85
- pIC50 [1, 25]: 5.96
- pIC50 [1, 26]: 6.15
- pIC50 [1, 27]: 6.69
- pIC50 [1, 28]: 5.00
- pIC50 [1, 29]: 5.96
- pIC50 [1, 30]: 5.41
- pIC50 [1, 31]: 6.65
- pIC50 [1, 32]: 5.00
- pIC50 [1, 33]: 5.00
- pIC50 [1, 12]: 6.29
- pIC50 ([1]; OV7, Ovarian Cancer): 6.81
- pIC50 [1, 14]: 6.87
- pIC50 (A549 cells [2]): 6.17
- pIC50 (A549 cells [3]): 6.85
- pIC50 (FL-SMARCA4; FL-SMARCA4 IC50, Table 3.2): 6.78
